The source of these data is US20190374574A1, “COMPOSITION FOR THE TREATMENT OF GASTROINTESTINAL DISORDERS” (NEILOS S.R.L., priority 2017, published 2019).

Read-outs that look alike come from different tables or passages of the source.

The subject of assay [1] is Male mice of the ICR strain. Put plainly: Diarrhoea induced by castor oil in mice. The class given is in vivo. To be noted: oral; for effect on diarrhoea induced by castor oil (percentage of mice that exhibited diarrhoea at the second hour): 30 minutes before castor oil 0.2 ml/mouse, evaluated 2 hours after castor oil, vs control. The protocol: In the following tests, the effect of two formulations and their individual constituents was evaluated in order to determine a possible synergistic effect among the individual components on diarrhoea induced by castor oil.
Male mice of the ICR strain supplied by the company Charles River and weighing 20-25 g were used. The animals were housed in temperature-controlled rooms (temperature of 23±2° C., humidity of 50±2%, 12-hour light-dark cycles) and had free access to water and food, consisting of a standard diet supplied by the company Mucedola Mangimi (Settimo Milanese, Italy). All experiments were performed in observance of Legislative Decree no. 116 of 27 Jan. 1992 and according to the guidelines of the Council of the European Union (86/609/EEC and 2010/63/EU).
The technique of Borrelli et al. (Borrelli F, Capasso F, Capasso R, Ascione V, Aviello G, Longo R, Izzo A A (2006). “Effect of Boswellia serrata on intestinal motility in rodents: inhibition of diarrhoea without constipation” Br J Pharmacol 148:553-560) was used. In practical terms, the mice were fasted for a period of 12 hours and then isolated in individual cages provided with a mesh on the bottom, set 5 cm above a sheet of absorbent paper. This enabled inspection of the excreted faeces. 30 minutes after administration of the samples to be tested, the animals received 0.2 ml of castor oil by means of a gastric probe. The diarrhoea was evaluated 15 minutes after the administration of the cathartic agent and every 15 minutes until the second hour. […]
Two formulations (according to the invention) were evaluated, consisting, respectively, of activated charcoal, Carum carvi, papain, α-galactosidase and β-galactosidase (total formulation) and activated charcoal, Carum carvi and papain (partial formulation). […]
The results are expressed as the mean±standard error of the mean (S.E.M.). The difference between two means was evaluated by means of Student's t-test. […]

The test system of assay [2] is patients with lactose intolerance. The following applies: cited from earlier work; for reduction in the hydrogen concentration compared to the placebo: p<0.001; for hydrogen concentration in expired air: placebo 51.46±16.12.

In the case of β-galactosidase, the “effect on diarrhoea induced by castor oil (percentage of mice that exhibited diarrhoea at the second hour)” value in assay [1] was “not capable of modifying the cathartic effect of the castor oil”. Further, the entries for the “reduction in the hydrogen concentration compared to the placebo” value in assay [2] (group A: 3000 U of lactase added to milk 10 hours prior to administration) and in assay [2] (group B: 6000 U of lactase added to milk 5 minutes prior to ingestion) were 77% and 73%, respectively. In addition, the “hydrogen concentration in expired air” value is listed as 12.07±7.8 p.p.m in assay [2] (group A: 3000 U of lactase added to milk 10 hours prior) and 13.97±7.99 p.p.m in assay [2] (group B: 6000 U of lactase added to milk 5 minutes prior). Also, the “cumulative quantity of expired hydrogen vs group C (placebo)” value in assay [2] (groups A and B) is given as “significantly lower”.

B1: Papain: Papain (CAS N. 9001-73-4), cysteine-protease from Carica papaya, activity greater than or equal to 2.5 FIP UI/mg (protein, UniProt P00784 134-345, looked up)
Papain: IPEYVDWRQKGAVTPVKNQGSCGSCWAFSAVVTIEGIIKIRTGNLNEYSEQELLDCDRRSYGCNGGYPWSALQLVAQYGIHYRNTYPYEGVQRYCRSREKGPYAAKTDGVRQVQPYNEGALLYSIANQPVSVVLEAAGKDFQLYRGGIFVGPCGNKVDHAVAAVGYGPNYILIKNSWGTGWGENGYIRIKRGTGNSYGVCGLYTSSFYPVKN
Regarding B1, the “effect on diarrhoea induced by castor oil (percentage of mice that exhibited diarrhoea at the second hour)” value in assay [1] is “significantly reduced diarrhoea”. For the same molecule, in assay [1] (2 hours after castor oil), the “dose at which the reduction of castor oil diarrhoea was significant” value was 30 mg/kg.
